In patent US10428083B2, “Heterocyclylmethyl-thienouracile as antagonists of the adenosine-A2B-receptor” (BAYER PHARMA AKTIENGESELLSCHAFT, priority 2015, dated 2019) one finds IC50 data, which are given here for 25 compounds.

pIC50: −log10 of the molar value.

The test addresses human adenosine A2b receptor (Homo sapiens (Human), UniProt P29275). In words: Cellular in vitro reporter gene test for A2b receptor activity (CHO-K1, CRE-luciferase, NECA stimulation). The format is cell-based. Conditions: recombinant CHO-K1 cell line, CRE-luciferase reporter, antagonism of EC50 concentration of NECA; in some cases means of several determinations, rounded to two significant figures; read-out: A2b receptor IC50. The method in brief: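 CHO-K1 cells with CRE-driven luciferase; antagonists co-incubated with NECA at its EC50, determined in a pre-experiment on each test day. Luciferase read by luminescence 3 h after NECA addition.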

The pIC50 is the negative decadic logarithm of the IC50, by convention in mol/L.

human adenosine A2b receptor, sequence (P29275 whole entry): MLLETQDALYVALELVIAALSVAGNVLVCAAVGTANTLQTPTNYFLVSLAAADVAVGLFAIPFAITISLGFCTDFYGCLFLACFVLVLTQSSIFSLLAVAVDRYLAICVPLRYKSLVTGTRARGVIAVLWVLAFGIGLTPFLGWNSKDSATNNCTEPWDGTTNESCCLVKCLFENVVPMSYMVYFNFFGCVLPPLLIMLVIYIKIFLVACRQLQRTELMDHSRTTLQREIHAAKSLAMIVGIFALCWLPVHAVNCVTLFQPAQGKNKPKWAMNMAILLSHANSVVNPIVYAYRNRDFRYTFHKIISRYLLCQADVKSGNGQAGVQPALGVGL

Regarding `CCn1c(=O)c2c(C)c(CN3CCNC3=NC#N)sc2n(CC2CCO2)c1=O` (single isomer, unassigned) [Example 258, [1-{[3-Ethyl-5-methyl-1-(oxetan-2-ylmethyl)-2,4-dioxo-1,2,3,4-tetrahydrothieno[2,3-d]pyrimidin-6-yl]methyl}imidazolidin-2-ylidene]cyanamide], the pIC50 is 7.48.

Regarding `CCn1c(=O)c2c(C)c(CN3CCNC3=NC#N)sc2n(CC2CCCO2)c1=O` (single isomer, unassigned) [Example 260, [1-{[3-Ethyl-5-methyl-2,4-dioxo-1-(tetrahydrofuran-2-ylmethyl)-1,2,3,4-tetrahydrothieno[2,3-d]pyrimidin-6-yl]methyl}imidazolidin-2-ylidene]cyanamide], the pIC50 was 8.66. As to `CCn1c(=O)c2c(C)c(CN3CCNC3=NC#N)sc2n(CC2CCCO2)c1=O` (single isomer, unassigned) [Example 261, [1-{[3-Ethyl-5-methyl-2,4-dioxo-1-(tetrahydrofuran-2-ylmethyl)-1,2,3,4-tetrahydrothieno[2,3-d]pyrimidin-6-yl]methyl}imidazolidin-2-ylidene]cyanamide], the pIC50 is 8.00. For the compound `Cc1c(CN2CCNC2=NC#N)sc2c1c(=O)n(C(C)C)c(=O)n2CC1CCO1` (single isomer, unassigned) [Example 265, [1-{[3-Isopropyl-5-methyl-1-(oxetan-2-ylmethyl)-2,4-dioxo-1,2,3,4-tetrahydrothieno[2,3-d]pyrimidin-6-yl]methyl}imidazolidin-2-ylidene]cyanamide], the pIC50 is 7.85. Turning to `Cc1c(CN2CCNC2=NC#N)sc2c1c(=O)n(C(C)C)c(=O)n2CC1CCO1` (single isomer, unassigned) [Example 266, [1-{[3-Isopropyl-5-methyl-1-(oxetan-2-ylmethyl)-2,4-dioxo-1,2,3,4-tetrahydrothieno[2,3-d]pyrimidin-6-yl]methyl}imidazolidin-2-ylidene]cyanamide], the pIC50 was 7.12. Under `Cc1c(Cn2[nH]ccc2=O)sc2c1c(=O)n(CC(F)(F)F)c(=O)n2CC1CCCO1` (single isomer, unassigned) [Example 285, 5-Methyl-6-[(5-oxo-2,5-dihydro-1H-pyrazol-1-yl)methyl]-1-(tetrahydrofuran-2-ylmethyl)-3-(2,2,2-trifluoroethyl)thieno[2,3-d]pyrimidine-2,4(1H,3H)-dione] stands 7.04; under `Cc1c(Cn2[nH]ccc2=O)sc2c1c(=O)n(CC(F)(F)F)c(=O)n2CC1CCCO1` (single isomer, unassigned) [Example 286, 5-Methyl-6-[(5-oxo-2,5-dihydro-1H-pyrazol-1-yl)methyl]-1-(tetrahydrofuran-2-ylmethyl)-3-(2,2,2-trifluoroethyl)thieno[2,3-d]pyrimidine-2,4(1H,3H)-dione], 6.66.

For `COCCn1c(=O)c2c(C)c(Cn3[nH]ccc3=O)sc2n(CC2CCCO2)c1=O` (single isomer, unassigned) [Example 290, 3-(2-Methoxyethyl)-5-methyl-6-[(5-oxo-2,5-dihydro-1H-pyrazol-1-yl)methyl]-1-(tetrahydrofuran-2-ylmethyl)thieno[2,3-d]pyrimidine-2,4(1H,3H)-dione], the pIC50 was 6.40.

For `COCCn1c(=O)c2c(C)c(Cn3[nH]ccc3=O)sc2n(CC2CCCO2)c1=O` (single isomer, unassigned) [Example 291, 3-(2-Methoxyethyl)-5-methyl-6-[(5-oxo-2,5-dihydro-1H-pyrazol-1-yl)methyl]-1-(tetrahydrofuran-2-ylmethyl)thieno[2,3-d]pyrimidine-2,4(1H,3H)-dione], the pIC50 was 6.72.

For `Cc1c(CN2CCNC2=S)sc2c1c(=O)n(CC(F)(F)F)c(=O)n2CC1CCCO1` (single isomer, unassigned) [Example 299, 5-Methyl-1-(tetrahydrofuran-2-ylmethyl)-6-[(2-thioxoimidazolidin-1-yl)methyl]-3-(2,2,2-trifluoroethyl)thieno[2,3-d]pyrimidine-2,4(1H,3H)-dione], the pIC50 is 8.25. Consider `Cc1c(CN2CCNC2=S)sc2c1c(=O)n(CC(F)(F)F)c(=O)n2CC1CCCO1` (single isomer, unassigned) [Example 300, 5-Methyl-1-(tetrahydrofuran-2-ylmethyl)-6-[(2-thioxoimidazolidin-1-yl)methyl]-3-(2,2,2-trifluoroethyl)thieno[2,3-d]pyrimidine-2,4(1H,3H)-dione], for which the negative-log IC50 (pIC50) was 7.85.

As to `COCCn1c(=O)c2c(C)c(CN3CCNC3=O)sc2n(CC2CCCO2)c1=O` (single isomer, unassigned) [Example 324, 3-(2-Methoxyethyl)-5-methyl-6-[(2-oxoimidazolidin-1-yl)methyl]-1-(tetrahydrofuran-2-ylmethyl)thieno[2,3-d]pyrimidine-2,4(1H,3H)-dione], the pIC50 was 6.96. Take `COCCn1c(=O)c2c(C)c(CN3CCNC3=O)sc2n(CC2CCCO2)c1=O` (single isomer, unassigned) [Example 325, 3-(2-Methoxyethyl)-5-methyl-6-[(2-oxoimidazolidin-1-yl)methyl]-1-(tetrahydrofuran-2-ylmethyl)thieno[2,3-d]pyrimidine-2,4(1H,3H)-dione]: the negative logarithm of the IC50 (pIC50) was 7.19. As to `COCCn1c(=O)n(C(C)COC)c(=O)c2c(C)c(CN3CCNC3=O)sc21` (single isomer, unassigned) [Example 330, 1-(2-Methoxyethyl)-3-(1-methoxypropan-2-yl)-5-methyl-6-[(2-oxoimidazolidin-1-yl)methyl]thieno[2,3-d]pyrimidine-2,4(1H,3H)-dione], the pIC50 is 6.66. On to `COCCn1c(=O)n(C(C)COC)c(=O)c2c(C)c(CN3CCNC3=O)sc21` (single isomer, unassigned) [Example 331, 1-(2-Methoxyethyl)-3-(1-methoxypropan-2-yl)-5-methyl-6-[(2-oxoimidazolidin-1-yl)methyl]thieno[2,3-d]pyrimidine-2,4(1H,3H)-dione], for which the pIC50 is 7.21. Under `COCCn1c(=O)n(CC2CCCO2)c(=O)c2c(C)c(CN3CCNC3=O)sc21` (single isomer, unassigned) [Example 333, 1-(2-Methoxyethyl)-5-methyl-6-[(2-oxoimidazolidin-1-yl)methyl]-3-(tetrahydrofuran-2-ylmethyl)thieno[2,3-d]pyrimidine-2,4(1H,3H)-dione] stands 6.96. Take `COCCn1c(=O)n(CC2CCCO2)c(=O)c2c(C)c(CN3CCNC3=O)sc21` (single isomer, unassigned) [Example 334, 1-(2-Methoxyethyl)-5-methyl-6-[(2-oxoimidazolidin-1-yl)methyl]-3-(tetrahydrofuran-2-ylmethyl)thieno[2,3-d]pyrimidine-2,4(1H,3H)-dione]: the pIC50 was 6.92.

Regarding `Cc1c(Cn2cc[nH]c2=O)sc2c1c(=O)n(CC(F)(F)F)c(=O)n2CC1CCCO1` (single isomer, unassigned) [Example 342, 5-Methyl-6-[(2-oxo-2,3-dihydro-1H-imidazol-1-yl)methyl]-1-(tetrahydrofuran-2-ylmethyl)-3-(2,2,2-trifluoroethyl)thieno[2,3-d]pyrimidine-2,4(1H,3H)-dione], the pIC50 was 7.89. As to `Cc1c(Cn2cc[nH]c2=O)sc2c1c(=O)n(CC(F)(F)F)c(=O)n2CC1CCCO1` (single isomer, unassigned) [Example 343, 5-Methyl-6-[(2-oxo-2,3-dihydro-1H-imidazol-1-yl)methyl]-1-(tetrahydrofuran-2-ylmethyl)-3-(2,2,2-trifluoroethyl)thieno[2,3-d]pyrimidine-2,4(1H,3H)-dione], the pIC50 is 7.60. On to `COCCn1c(=O)c2c(C)c(Cn3cc[nH]c3=O)sc2n(CC2CCCO2)c1=O` (single isomer, unassigned) [Example 347, 3-(2-Methoxyethyl)-5-methyl-6-[(2-oxo-2,3-dihydro-1H-imidazol-1-yl)methyl]-1-(tetrahydrofuran-2-ylmethyl)thieno[2,3-d]pyrimidine-2,4(1H,3H)-dione], for which the pIC50 is 7.25. With `COCCn1c(=O)c2c(C)c(Cn3cc[nH]c3=O)sc2n(CC2CCCO2)c1=O` (single isomer, unassigned) [Example 348, 3-(2-Methoxyethyl)-5-methyl-6-[(2-oxo-2,3-dihydro-1H-imidazol-1-yl)methyl]-1-(tetrahydrofuran-2-ylmethyl)thieno[2,3-d]pyrimidine-2,4(1H,3H)-dione], the pIC50 was 7.32. In the case of `Cc1c(CN2CCNC2=NC#N)sc2c1c(=O)n(C(C)C)c(=O)n2CC1CCCO1` (single isomer, unassigned) [Example 356, [1-{[3-Isopropyl-5-methyl-2,4-dioxo-1-(tetrahydrofuran-2-ylmethyl)-1,2,3,4-tetrahydrothieno[2,3-d]pyrimidin-6-yl]methyl}imidazolidin-2-ylidene]cyanamide], the pIC50 was 8.29. Turning to `Cc1c(CN2CCNC2=NC#N)sc2c1c(=O)n(C(C)C)c(=O)n2CC1CCCO1` (single isomer, unassigned) [Example 357, [1-{[3-Isopropyl-5-methyl-2,4-dioxo-1-(tetrahydrofuran-2-ylmethyl)-1,2,3,4-tetrahydrothieno[2,3-d]pyrimidin-6-yl]methyl}imidazolidin-2-ylidene]cyanamide], the pIC50 is 7.49. `Cc1c(CN2CCNC2=NC#N)sc2c1c(=O)n(CC(F)(F)F)c(=O)n2CC1CCCO1` (single isomer, unassigned) [Example 360, [1-{[5-Methyl-2,4-dioxo-1-(tetrahydrofuran-2-ylmethyl)-3-(2,2,2-trifluoroethyl)-1,2,3,4-tetrahydrothieno[2,3-d]pyrimidin-6-yl]methyl}imidazolidin-2-ylidene]cyanamide]: the pIC50 is 8.00. Take `Cc1c(CN2CCNC2=NC#N)sc2c1c(=O)n(CC(F)(F)F)c(=O)n2CC1CCCO1` (single isomer, unassigned) [Example 361, [1-{[5-Methyl-2,4-dioxo-1-(tetrahydrofuran-2-ylmethyl)-3-(2,2,2-trifluoroethyl)-1,2,3,4-tetrahydrothieno[2,3-d]pyrimidin-6-yl]methyl}imidazolidin-2-ylidene]cyanamide]: the negative logarithm of the IC50 (pIC50) is 7.89.
